The text below walks through data of patent publication US20230406840A1, “N-(2-(3-CYANO-2-AZABICYCLO[3.1.0]HEXAN-2-YL)-2-OXOETHYL)QUINOLINE-4-CARBOXAMIDES” (AstraZeneca AB, priority 2022, published 2023).

Converted amounts (≈) assume the structure as drawn. Bounds are passed on as bounds.

Data set [1] has as its target Prolyl Oligopeptidase (hPREP) (Homo sapiens (Human), UniProt P48147). As to the kind of experiment: hPREP inhibition assay. The data set is classed as biochemical. Particulars: hPREP 0.6 nM, Z-Gly-Pro-amino-methylcoumarin 50 μM; read-out: PREP IC50. As for the experimental part:
Compounds were tested in a biochemical inhibition assay using Prolyl endopeptidase, Prolyl Oligopeptidase (hPREP) enzyme at 0.6 nM FAC (R&D Systems, 4308-SE) and the substrate Z-Gly-Pro-amino-methylcoumarin (Bachem, I-1145) at 50 μM FAC. 384 Low volume black plates (Greiner #784076) were used. […] 4 μL, 100 μM substrate solution (25 mM Tris HCl, 250 mM NaCl, 0.01% Triton X-100, 5 mM Glutathione, pH 7.5) was added to each well. Plates were centrifuged at 1000 rpm and incubated for 20 min at rt in dark. […] Data were analyzed in Genedata Screener®.

The test system of data set [2] is Human Hepatocytes (hHep). As to the kind of experiment: Metabolic stability in human hepatocytes (hHep). The data set is classed as in vitro ADME. As for the experimental part:
Metabolic stability in human hepatocytes was measured as described in Xenobiotica 2010, 40, 637.

For data set [3], the target named is hFAP (Homo sapiens (Human), UniProt Q12884).
Description: Compounds were tested in a biochemical inhibition assay using hFAP enzyme at 0.24 nM FAC (Proteros, 38-760 (PR-0071)) and the substrate Ala-Pro-AMC (ARI-3144) at 20 μM FAC. 384 low volume black plates (Greiner #784076) were used. 4 μL, 0.48 nM enzyme solution (100 mM Tris HCl, 100 mM NaCl, 0.05% Chaps, pH 7.4) was added to 40 nL compounds (in DMSO) at 10 CR, 3-fold dilution series from 50 μM FAC. Plates were incubated for 15 min at rt in dark. 4 μL, 40 μM substrate solution (100 mM Tris HCl, 100 mM NaCl, 0.05% Chaps, pH 7.4) was added to each well. Plates were centrifuged at 1000 rpm and incubated for 30 min at rt in dark. The plates were read on a PHERAstar® reader with excitation 340 nm and emission 460 nm. Data were analyzed in Genedata Screener®. IC50 values were determined by plotting % inhibition versus log compound concentration and using a one site dose response model.
Data set [4] can be described thus: Metabolic stability in human liver microsomes (HLM). The data set is classed as in vitro ADME. As for the experimental part:
Metabolic stability in HLM was measured as described in J Comput Aided Mol Des 2015, 29, 795.

The nature of data set [5]: Kinetic solubility. The class given is physicochemical. The note with it: kinetic from dmso stock. On the procedure:
Kinetic solubility was measured as described in Comput Aided Mol Des 2015, 29, 795.

Data set [6] has as its target human Fibroblast activation protein alpha (hFAP) (Homo sapiens (Human), UniProt Q12884). As to the kind of experiment: hFAP inhibition assay (tight binders). The data set is classed as biochemical. Particulars: tight-binder format, Ala-Pro-AMC 20 μM, 2.5 h incubation; n = 1 or geometric mean (n = 5-10). On the procedure: Data were analyzed in Genedata Screener®.
Data set [7] has as its target FAP Human Plasma (Homo sapiens (Human), UniProt Q12884). The data set is described as follows: FAP plasma inhibition assay, human plasma. The class given is biochemical. Particulars: human plasma dilution 1:40, Ala-Pro-AMC 75 μM; n = 1. As for the experimental part:
(§1) This assay was adapted from the method described in Example 53 for detection of FAP target engagement enzyme activity in plasma. Plasma (anticoagulant K2EDTA) was used as the enzyme source: Human plasma (Pooled from AZ Biobank) and Mouse plasma (AZ AST Biobank). 384-Well black fluotrack PS plates (Greiner 781076) were used. 20 μL diluted plasma (Human plasma dilution 1:40, Mouse plasma dilution 1:67) in buffer (PBS, 0.1% BSA) was added to 0.6 μL compounds (in DMSO). Compounds were tested using 10 CR, 3-fold dilution series from 500 nM FAC. Two replicates for each assay point were run on the same plate. A fluorescence blank read was taken before substrate addition. Substrate, Ala-Pro-AMC (ARI-3144) stock solution (20 mM in DMSO) was diluted in buffer (PBS, 0.1% BSA) to 150 μM concentration and 20 μL added giving 75 μM FAC. Plates were incubated for 40 min at rt in the dark. The plates were read on a Beckman Paradigm® reader with excitation 360 nm and emission 465 nm. Data were analyzed in Excel (IDBS XLfit Add-In) using a one site dose response model (4-parameter logistic fit). […] Raw data signals were normalized using 1.5% DMSO in diluted plasma as 0% control and 1.5% DMSO in buffer (no plasma) as 100% inhibitor control.

Data set [8] concerns the target FAP Mouse Plasma (Mus musculus (Mouse), UniProt P97321). As to the kind of experiment: FAP plasma inhibition assay, mouse plasma. The class given is biochemical. The note with it: mouse plasma dilution 1:67, Ala-Pro-AMC 75 μM; n = 1. On the procedure: as §1
Data set [9] deals with Rat Hepatocytes (rHep). The data set is described as follows: Metabolic stability in rat hepatocytes (rHep). The class given is in vitro ADME. As for the experimental part:
Metabolic stability in rat hepatocytes was measured as described in J Comput Aided Mol Des 2015, 29, 795.

Data set [10] in a line: Caco-2 AB intrinsic permeability. The class given is in vitro ADME. Particulars: human, A to B, read-out: Caco2 AB Intrinsic Papp. On the procedure:
Caco-2 cell permeability was measured as described in Mol/Pharm 2017, 14, 1601.
For orientation: Passage across Caco-2 layers is used to estimate intestinal permeability.

Data set [11] addresses hFAP (M39-A757) (Homo sapiens (Human), UniProt Q12884).
Description: Compounds were tested in a direct binding assay using 8K surface plasmon resonance biosensor (GE Healthcare) at 20° C. Immobilization of hFAP (M39-A757) on a CMD200M sensor chip (Xantec) was performed using standard amine coupling procedure in immobilization buffer (10 mM HEPES, 150 mM NaCl, 0.05% Tween20, pH 7.4). The surface was washed with 10 mM NaOH, 1M NaCl before being activated with EDC/NHS (GE Healthcare), followed by immobilization of hFAP (in 10 mM Acetate pH 5.0). Finally, the surface was deactivated by ethanolamine. Immobilization levels of hFAP were around 4000-6000 RU. The reference spot was treated as described, omitting the injection of hFAP. Compound concentration series were injected over the immobilized protein in increasing concentrations (2-500 nM) using single cycle kinetics in running buffer (20 mM TRIS, 150 mM NaCl, 0.05% Tween20, 1% DMSO, pH 7.4). Interaction models were fitted globally to the experimental traces, enabling determination of kon, koff and Kd.

Chain of FAP Mouse Plasma (P97321 24-761 limits assumed): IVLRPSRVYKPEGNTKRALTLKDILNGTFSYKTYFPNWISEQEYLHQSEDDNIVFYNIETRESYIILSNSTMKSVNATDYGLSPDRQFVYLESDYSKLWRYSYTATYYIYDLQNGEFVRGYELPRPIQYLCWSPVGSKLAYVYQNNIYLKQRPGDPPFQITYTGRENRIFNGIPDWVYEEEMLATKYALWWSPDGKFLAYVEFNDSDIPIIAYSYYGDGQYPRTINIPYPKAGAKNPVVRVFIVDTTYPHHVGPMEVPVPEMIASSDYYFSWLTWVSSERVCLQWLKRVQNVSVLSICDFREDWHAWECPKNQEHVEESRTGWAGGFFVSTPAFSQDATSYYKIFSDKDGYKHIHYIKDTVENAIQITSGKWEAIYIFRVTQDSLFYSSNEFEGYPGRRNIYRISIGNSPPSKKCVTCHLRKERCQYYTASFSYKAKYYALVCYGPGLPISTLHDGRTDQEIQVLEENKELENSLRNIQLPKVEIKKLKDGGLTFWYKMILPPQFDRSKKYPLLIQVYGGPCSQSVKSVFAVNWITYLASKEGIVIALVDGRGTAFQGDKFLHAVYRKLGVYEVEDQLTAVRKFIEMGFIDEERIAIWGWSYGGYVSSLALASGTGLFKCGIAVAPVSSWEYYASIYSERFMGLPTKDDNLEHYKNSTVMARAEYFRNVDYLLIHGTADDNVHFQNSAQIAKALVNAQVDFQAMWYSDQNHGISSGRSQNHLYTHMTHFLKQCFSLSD
Chain of hFAP (M39-A757) (Q12884 39-757): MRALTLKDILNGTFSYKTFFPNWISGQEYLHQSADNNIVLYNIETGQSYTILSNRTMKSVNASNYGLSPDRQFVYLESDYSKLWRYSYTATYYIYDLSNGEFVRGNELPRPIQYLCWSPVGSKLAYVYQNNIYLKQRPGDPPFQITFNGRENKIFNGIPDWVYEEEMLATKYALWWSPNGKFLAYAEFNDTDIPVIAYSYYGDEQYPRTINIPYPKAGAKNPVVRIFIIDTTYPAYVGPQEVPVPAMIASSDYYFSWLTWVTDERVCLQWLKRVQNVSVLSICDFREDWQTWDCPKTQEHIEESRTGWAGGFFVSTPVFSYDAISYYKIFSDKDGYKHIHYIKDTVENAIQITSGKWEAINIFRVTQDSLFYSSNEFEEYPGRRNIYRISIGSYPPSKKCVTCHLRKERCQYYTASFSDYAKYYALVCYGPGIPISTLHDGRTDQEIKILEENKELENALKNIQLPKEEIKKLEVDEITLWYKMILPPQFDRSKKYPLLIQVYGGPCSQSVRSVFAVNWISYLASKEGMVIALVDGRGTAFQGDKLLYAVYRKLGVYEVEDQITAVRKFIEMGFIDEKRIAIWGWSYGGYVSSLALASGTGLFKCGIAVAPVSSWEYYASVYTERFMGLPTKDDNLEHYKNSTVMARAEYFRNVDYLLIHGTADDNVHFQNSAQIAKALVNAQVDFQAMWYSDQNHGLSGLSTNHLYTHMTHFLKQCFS
Chain of human Fibroblast activation protein alpha (hFAP) (Q12884 38-760): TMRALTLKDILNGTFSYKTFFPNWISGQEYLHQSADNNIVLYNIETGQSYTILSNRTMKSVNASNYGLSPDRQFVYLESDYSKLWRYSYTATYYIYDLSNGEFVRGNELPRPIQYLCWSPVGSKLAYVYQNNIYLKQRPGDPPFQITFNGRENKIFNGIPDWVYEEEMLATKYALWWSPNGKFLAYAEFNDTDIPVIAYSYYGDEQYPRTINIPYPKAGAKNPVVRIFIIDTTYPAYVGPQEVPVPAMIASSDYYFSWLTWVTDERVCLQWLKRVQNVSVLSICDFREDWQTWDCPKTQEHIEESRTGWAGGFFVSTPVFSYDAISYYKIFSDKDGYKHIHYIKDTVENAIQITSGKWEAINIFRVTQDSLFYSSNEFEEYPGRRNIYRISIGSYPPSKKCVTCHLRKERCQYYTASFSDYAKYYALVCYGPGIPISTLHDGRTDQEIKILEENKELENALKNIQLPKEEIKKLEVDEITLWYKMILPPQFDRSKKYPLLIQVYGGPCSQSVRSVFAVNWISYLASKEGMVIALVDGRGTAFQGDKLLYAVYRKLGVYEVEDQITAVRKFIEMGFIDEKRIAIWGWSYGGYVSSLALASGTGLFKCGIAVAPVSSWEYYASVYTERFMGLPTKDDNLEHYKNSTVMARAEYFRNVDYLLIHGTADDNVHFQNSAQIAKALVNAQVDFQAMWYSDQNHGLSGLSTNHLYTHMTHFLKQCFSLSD
Chain of hFAP (Q12884 38-760): as above
Chain of Prolyl Oligopeptidase (hPREP) (P48147 whole entry): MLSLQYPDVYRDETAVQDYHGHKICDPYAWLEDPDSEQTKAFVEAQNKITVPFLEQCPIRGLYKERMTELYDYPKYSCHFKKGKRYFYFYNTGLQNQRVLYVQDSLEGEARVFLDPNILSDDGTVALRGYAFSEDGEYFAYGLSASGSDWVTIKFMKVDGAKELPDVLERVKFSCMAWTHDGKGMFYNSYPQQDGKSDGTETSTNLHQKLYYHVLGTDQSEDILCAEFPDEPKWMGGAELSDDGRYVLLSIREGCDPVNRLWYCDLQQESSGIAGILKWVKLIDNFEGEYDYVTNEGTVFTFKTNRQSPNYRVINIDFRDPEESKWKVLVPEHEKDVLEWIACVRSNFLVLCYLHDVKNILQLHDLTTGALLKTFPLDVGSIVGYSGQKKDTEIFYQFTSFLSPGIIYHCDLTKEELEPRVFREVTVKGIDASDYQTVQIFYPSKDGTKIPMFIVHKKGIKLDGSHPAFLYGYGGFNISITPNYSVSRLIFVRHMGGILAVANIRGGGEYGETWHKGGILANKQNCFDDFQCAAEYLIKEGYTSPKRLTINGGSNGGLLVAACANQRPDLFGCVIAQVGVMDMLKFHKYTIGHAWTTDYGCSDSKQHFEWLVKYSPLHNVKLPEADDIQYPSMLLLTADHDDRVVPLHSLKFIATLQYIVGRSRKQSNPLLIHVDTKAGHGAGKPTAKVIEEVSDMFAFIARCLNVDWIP
Chain of FAP Human Plasma (Q12884 24-760 limits assumed): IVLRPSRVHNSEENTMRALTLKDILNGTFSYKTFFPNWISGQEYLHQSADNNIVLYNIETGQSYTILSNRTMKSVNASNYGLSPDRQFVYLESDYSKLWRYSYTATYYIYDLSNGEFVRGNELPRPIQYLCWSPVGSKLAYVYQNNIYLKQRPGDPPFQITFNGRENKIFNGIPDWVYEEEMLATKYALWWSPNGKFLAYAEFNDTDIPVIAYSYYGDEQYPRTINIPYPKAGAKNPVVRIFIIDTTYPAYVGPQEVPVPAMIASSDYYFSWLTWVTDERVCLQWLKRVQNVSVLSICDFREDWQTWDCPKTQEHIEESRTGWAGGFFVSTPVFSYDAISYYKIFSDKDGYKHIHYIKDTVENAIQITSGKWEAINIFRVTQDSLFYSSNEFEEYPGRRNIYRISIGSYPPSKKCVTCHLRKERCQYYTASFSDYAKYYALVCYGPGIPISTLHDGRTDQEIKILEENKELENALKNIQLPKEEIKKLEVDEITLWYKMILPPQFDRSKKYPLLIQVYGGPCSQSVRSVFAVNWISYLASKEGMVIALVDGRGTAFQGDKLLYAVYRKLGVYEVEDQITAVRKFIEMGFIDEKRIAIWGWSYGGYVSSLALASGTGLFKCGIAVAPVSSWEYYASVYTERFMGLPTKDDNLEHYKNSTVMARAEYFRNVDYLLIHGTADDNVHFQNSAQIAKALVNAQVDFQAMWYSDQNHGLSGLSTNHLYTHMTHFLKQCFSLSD

For the molecule `N#C[C@@H]1C[C@@H]2C[C@@H]2N1C(=O)CNC(=O)c1ccnc2ccc(Br)cc12` [Example 1, 6-Bromo-N-(2-((1S,3S,5S)-3-cyano-2-azabicyclo[3.1.0]hexan-2-yl)-2-oxoethyl)quinoline-4-carboxamide], the IC50 in data set [1] came to 27000 nM; in data set [3] it was 2 nM; in [6], 0.44 nM; in data set [7] it was 23 nM; in data set [8] it was 20 nM. Further, the “hHep CLint” value in data set [2] came out at 2.8 μL/min/1E6. The same molecule yielded a microsomal CLint in data set [4] of 9.7 µL/min/mg. The solubility in [5] amounted to 290 µM (≈ 116 µg/mL). For the same molecule, the “rHeps CLint” value in [9] is reported as 3.8 μL/min/1E6.

Turning to `N#C[C@@H]1C[C@@H]2C[C@@H]2N1C(=O)CNC(=O)c1ccnc2cc(Br)ccc12` [Example 3, 7-Bromo-N-(2-((1S,3S,5S)-3-cyano-2-azabicyclo[3.1.0]hexan-2-yl)-2-oxoethyl)quinoline-4-carboxamide], the IC50 in data set [1] was > 50000 nM; in [3], 0.68 nM; in data set [6] it was 0.12 nM; in [7], 15 nM; in data set [8] it was 15 nM. Also, the “hHep CLint” value in [2] is <1 μL/min/1E6. Also, the intrinsic clearance (microsomal CLint) in [4] was < 3 µL/min/mg. This molecule also had a solubility in data set [5] of 210 µM (≈ 83.8 µg/mL). Besides, the “rHeps CLint” value in data set [9] was 4.5 μL/min/1E6.

Take `Cc1ccc2nccc(C(=O)NCC(=O)N3[C@H](C#N)C[C@@H]4C[C@@H]43)c2c1` [Example 9, N-(2-((1S,3S,5S)-3-Cyano-2-azabicyclo[3.1.0]hexan-2-yl)-2-oxoethyl)-6-methylquinoline-4-carboxamide]: the half-inhibitory concentration (IC50) in data set [1] is > 50000 nM; in data set [3], < 2.8 nM; in [6] it was 0.56 nM; in [7], 7.5 nM; in data set [8], 2.7 nM.

Consider `N#C[C@@H]1C[C@@H]2C[C@@H]2N1C(=O)CNC(=O)c1ccnc2ccc(C(F)(F)F)cc12` [Example 10, N-(2-((1S,3S,5S)-3-Cyano-2-azabicyclo[3.1.0]hexan-2-yl)-2-oxoethyl)-6-(trifluoromethyl)quinoline-4-carboxamide], for which the IC50 in [1] is > 50000 nM; in [3], 4.8 nM; in [7], 34 nM; in [8], 15 nM. For the same molecule, the “hHep CLint” value in data set [2] stood at 7 μL/min/1E6. The molecule further returned a microsomal CLint in data set [4] of 37 µL/min/mg. Besides, the solubility in data set [5] stood at 140 µM (≈ 54.4 µg/mL). Further, the “rHeps CLint” value in data set [9] is reported as 6.7 μL/min/1E6.

Turning to `Cc1ccc2c(C(=O)NCC(=O)N3[C@H](C#N)C[C@@H]4C[C@@H]43)cc(C)nc2c1` [Example 31, N-(2-((1S,3S,5S)-3-Cyano-2-azabicyclo[3.1.0]hexan-2-yl)-2-oxoethyl)-2,7-dimethylquinoline-4-carboxamide], the IC50 in [1] was 38000 nM; in data set [3], 31 nM; in [6] it was 11 nM; in data set [7] it was 320 nM. In addition, the “hHep CLint” value in [2] is on record as <1 μL/min/1E6. The Papp in data set [10] turned out to be 56 ×10⁻⁶ cm/s. In data set [4], the microsomal CLint stood at 6.2 µL/min/mg. For the same molecule, in [5], the solubility is > 1000 µM. Besides, in data set [9], the “rHeps CLint” value turned out to be 1.6 μL/min/1E6.

Regarding `N#C[C@@H]1C[C@@H]2C[C@@H]2N1C(=O)CNC(=O)c1ccnc2cc(C3(C(F)(F)F)CC3)ccc12` [Example 36, N-(2-((1S,3S,5S)-3-Cyano-2-azabicyclo[3.1.0]hexan-2-yl)-2-oxoethyl)-7-(1-(trifluoromethyl)cyclopropyl)quinoline-4-carboxamide], the IC50 in data set [1] was > 50000 nM; in data set [3] it was 3.4 nM; in data set [6], 0.58 nM. For the same molecule, the microsomal CLint in data set [4] turned out to be 180 µL/min/mg. Besides, in data set [5], the concentration in solution (solubility) was 210 µM (≈ 90 µg/mL). For the same molecule, in [9], the “rHeps CLint” value is given as 92 μL/min/1E6. In addition, in data set [11], the Kd was 4.3 nM.

Turning to `COc1ccc2c(C(=O)NCC(=O)N3[C@H](C#N)C[C@@H]4C[C@@H]43)cc(C)nc2c1` [Example 41, N-(2-((1S,3S,5S)-3-Cyano-2-azabicyclo[3.1.0]hexan-2-yl)-2-oxoethyl)-7-methoxy-2-methylquinoline-4-carboxamide], the “hHep CLint” value in [2] is <1 μL/min/1E6. Moreover, the IC50 in [3] was determined as 38 nM; in data set [7], 380 nM; in [8] it was 300 nM. In data set [4], the microsomal CLint is < 3 µL/min/mg. The solubility in [5] worked out at 120 µM (≈ 43.7 µg/mL). Further, the “rHeps CLint” value in data set [9] is recorded as <1 μL/min/1E6.

With `CC1(c2ccc3nccc(C(=O)NCC(=O)N4[C@H](C#N)C[C@@H]5C[C@@H]54)c3c2)CC1` [Example 43, N-(2-((1S,3S,5S)-3-Cyano-2-azabicyclo[3.1.0]hexan-2-yl)-2-oxoethyl)-6-(1-methylcyclopropyl)quinoline-4-carboxamide], the IC50 in data set [1] is > 50000 nM; in data set [3], 2.9 nM; in data set [6] it was 0.56 nM. This molecule also showed a microsomal CLint in data set [4] of 260 µL/min/mg. This molecule came in with a solubility in [5] of 820 µM (≈ 307 µg/mL). Also, the “rHeps CLint” value in data set [9] came to 67 μL/min/1E6. The same molecule returned a Kd in [11] of 11 nM.

As for `N#C[C@@H]1C[C@@H]2C[C@@H]2N1C(=O)CNC(=O)c1ccnc2ccc(C3(C(F)(F)F)CC3)cc12` [Example 44, N-(2-((1S,3S,5S)-3-Cyano-2-azabicyclo[3.1.0]hexan-2-yl)-2-oxoethyl)-6-(1-(trifluoromethyl)cyclopropyl)quinoline-4-carboxamide], the IC50 is > 50000 nM in data set [1], 4.6 nM in [3] and 1.1 nM in data set [6]. In data set [4], the microsomal CLint is > 300 µL/min/mg. Moreover, in [5], the concentration in solution (solubility) was 510 µM (≈ 218 µg/mL). The “rHeps CLint” value in data set [9] came to 150 μL/min/1E6. In addition, the Kd in data set [11] turned out to be 12 nM.

Take `CCOC1(c2ccc3nccc(C(=O)NCC(=O)N4[C@H](C#N)C[C@@H]5C[C@@H]54)c3c2)CC1` [Example 45, N-(2-((1S,3S,5S)-3-Cyano-2-azabicyclo[3.1.0]hexan-2-yl)-2-oxoethyl)-6-(1-ethoxycyclopropyl)quinoline-4-carboxamide]: the IC50 in data set [1] is > 50000 nM; in data set [3], 0.76 nM; in [6], 0.25 nM. This molecule also registered a microsomal CLint in data set [4] of 120 µL/min/mg. Besides, in data set [5], the solubility is > 1000 µM. For the same molecule, the “rHeps CLint” value in [9] stood at 40 μL/min/1E6. The molecule further yielded an equilibrium dissociation constant (Kd) in [11] of 7.3 nM.

In the case of `N#C[C@@H]1C[C@@H]2C[C@@H]2N1C(=O)CNC(=O)c1ccnc2ccc(C3(C#N)CC3)cc12` [Example 46, N-(2-((1S,3S,5S)-3-Cyano-2-azabicyclo[3.1.0]hexan-2-yl)-2-oxoethyl)-6-(1-cyanocyclopropyl)quinoline-4-carboxamide], the IC50 was > 50000 nM in [1], 1.7 nM in [3] and 0.18 nM in data set [6]. The “hHep CLint” value in data set [2] is <1 μL/min/1E6. For the same molecule, the microsomal CLint in data set [4] worked out at 20 µL/min/mg. The solubility in [5] came out at 110 µM (≈ 42.4 µg/mL). For the same molecule, the “rHeps CLint” value in [9] is given as 6.6 μL/min/1E6. Besides, the Kd in data set [11] amounted to 25 nM.

The term IC50 denotes the concentration that inhibits the measured activity by half. As a reminder, the microsomal CLint is a measure of how fast metabolising enzymes remove a compound, apart from limits set by blood flow. Low values mean slow turnover, high ones rapid turnover. For orientation: solubility means how much of the substance goes into solution per volume. Read a high solubility as a readily soluble substance. For orientation: Papp means a coefficient for how fast a substance crosses the barrier. One may read the Kd as a measure of binding affinity in units of concentration.
